From ChEMBL document CHEMBL1155983, “Synthesis of novel [1,2]-diamines with antituberculosis activity” (Bioorg Med Chem Lett, 2009)
In brackets after ≈: the same amount, converted by molar mass.

Tests used:
[1] = system: Mycobacterium tuberculosis; assay: Antituberculosis activity against Mycobacterium tuberculosis H37Rv by microbroth dilution assay; assay type: functional
[2] = Oral bioavailability in rat; assay type: ADME, organism-based; settings: in vivo
[3] = Oral bioavailability in dog; assay type: ADME, organism-based, Canis lupus familiaris; settings: in vivo

Compound | MIC [1] | bioavailability [2] | bioavailability [3]
CC(C)=CCC/C(C)=C/CNCCNC1C2CC3CC(C2)CC1C3.Cl.Cl (centres undefined) | 0.6 µM | 12% | 3.8%
CC(C)=CCC/C(C)=C/CNCCNC1C2CC3CC(C2)CC1(O)C3 (centres undefined) | 0.6 µM (≈ 0.208 µg/mL) | – | –
CC(C)=CCC/C(C)=C/CNCCNC1C2CC3CC1CC(F)(C3)C2 (centres undefined) | 0.6 µM (≈ 0.209 µg/mL) | – | –
CC(C)=CCC/C(C)=C/C(C)NCCNC1C2CC3CC(C2)CC1C3 (centres undefined) | 1.2 µM (≈ 0.414 µg/mL) | – | –
CCC(/C=C(\C)CCC=C(C)C)NCCNC1C2CC3CC(C2)CC1C3 (centres undefined) | 1.2 µM (≈ 0.43 µg/mL) | – | –
CC(C)=CCC/C(C)=C/C(Cc1ccccc1)NCCNC1C2CC3CC(C2)CC1C3 (centres undefined) | 1 µM (≈ 0.421 µg/mL) | – | –
COC12CC3CC(C1)C(NCCNC/C=C(\C)CCC=C(C)C)C(C3)C2 (centres undefined) | 1.7 µM (≈ 0.613 µg/mL) | – | –
CC(C)=CCC/C(C)=C/CNCCNC1C2CC3CC(C2)CC1(F)C3 (centres undefined) | 0.3 µM (≈ 0.105 µg/mL) | – | –
CC(C)=CCC/C(C)=C/CNCCNC1C2CC3CC1CC(O)(C3)C2 (centres undefined) | 8.6 µM (≈ 2.98 µg/mL) | – | –
COC12CC3CC(CC(C3)C1NCCNC/C=C(\C)CCC=C(C)C)C2 (centres undefined) | 0.5 µM (≈ 0.18 µg/mL) | – | –
CC(C)=CCC/C(C)=C/C(Cc1ccc(F)cc1)NCCNC1C2CC3CC(C2)CC1C3 (centres undefined) | 3 µM (≈ 1.32 µg/mL) | – | –
CC(C)=CCC/C(C)=C/C(Cc1ccc(OC(F)(F)F)cc1)NCCNC1C2CC3CC(C2)CC1C3 (centres undefined) | 5.2 µM (≈ 2.62 µg/mL) | – | –
